The numbers were not newly measured in patent publication US20050101629A1, “Compositions of a chromene cyclooxygenase-2 selective inhibitor and a cholinergic agent for the treatment of reduced blood flow or trauma to the central nervous system” (Pharmacia Corporation, priority 2003, published 2005), which cites them from elsewhere.

The conditions of this series: administered to subjects following stroke; Adibhatla et al. (2002) J. Neurochem. 80:12-23.

Turning to `C[N+](C)(C)CCOP(=O)(O)OP(=O)(O)OC[C@H]1O[C@@H](n2ccc(N)nc2=O)[C@H](O)[C@@H]1O` [citicoline], the behavioral parameters entry is given as “improvement in behavioral parameters” and the infarction volume entry was “decrease in infarction volume”.
